ChEMBL document CHEMBL1130390, “Design and synthesis of novel imidazole-substituted dipeptide amides as potent and selective inhibitors of Candida albicans myristoylCoA:protein N-myristoyltransferase and identification of related tripeptide inhibitors with mechanism-based antifungal activity” (J Med Chem, 1997)

Tests used:
[1] = target: Peptide N-myristoyltransferase (Candida albicans)
[2] = target: T1, Peptide N-myristoyltransferase (Homo sapiens, UniProt P30419+O60551); assay: Inhibition activity against N-myristoyltransferase (NMT) of human.; format: protein assay
T1 sequence (P30419 whole entry): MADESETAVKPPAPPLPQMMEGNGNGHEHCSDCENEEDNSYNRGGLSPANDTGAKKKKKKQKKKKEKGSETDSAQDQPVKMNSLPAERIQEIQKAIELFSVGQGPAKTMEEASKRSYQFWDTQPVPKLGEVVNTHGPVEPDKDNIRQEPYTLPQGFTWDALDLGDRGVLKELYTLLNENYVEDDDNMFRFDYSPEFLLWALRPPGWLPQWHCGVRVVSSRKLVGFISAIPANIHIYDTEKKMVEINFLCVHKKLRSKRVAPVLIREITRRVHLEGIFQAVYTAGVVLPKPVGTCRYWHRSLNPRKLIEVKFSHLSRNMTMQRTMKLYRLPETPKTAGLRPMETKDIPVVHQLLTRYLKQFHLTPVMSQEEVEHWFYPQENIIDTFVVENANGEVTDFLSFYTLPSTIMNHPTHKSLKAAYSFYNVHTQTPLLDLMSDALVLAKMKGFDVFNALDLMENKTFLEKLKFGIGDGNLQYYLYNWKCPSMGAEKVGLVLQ
T1 sequence (O60551 whole entry): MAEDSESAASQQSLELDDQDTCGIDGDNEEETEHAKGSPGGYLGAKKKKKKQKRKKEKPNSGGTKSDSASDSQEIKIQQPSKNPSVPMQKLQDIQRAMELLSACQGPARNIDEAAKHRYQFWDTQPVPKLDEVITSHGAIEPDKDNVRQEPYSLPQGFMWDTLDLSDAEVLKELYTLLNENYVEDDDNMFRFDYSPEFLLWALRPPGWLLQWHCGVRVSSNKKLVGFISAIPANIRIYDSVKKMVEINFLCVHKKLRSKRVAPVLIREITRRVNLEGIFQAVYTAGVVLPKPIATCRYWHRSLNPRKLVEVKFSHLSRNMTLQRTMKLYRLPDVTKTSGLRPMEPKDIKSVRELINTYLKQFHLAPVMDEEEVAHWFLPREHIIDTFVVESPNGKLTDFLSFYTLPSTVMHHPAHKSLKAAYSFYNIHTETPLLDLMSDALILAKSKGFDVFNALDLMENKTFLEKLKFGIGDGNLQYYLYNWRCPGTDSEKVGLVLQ

Cryptococcus neoformans = assay: Growth inhibitory activity against Cryptococcus neoformans.; format: functional, organism-based
Candida albicans [3] = assay: Growth inhibitory activity against candida albicans.; format: functional, organism-based
Candida albicans [4] = assay: tested to obtain the effective concentration to inhibit candida albicans.; format: functional, organism-based

Compound	IC50 [1]	IC50 [2]	EC50 (Candida albicans [4])	EC50 (Cryptococcus neoformans)	EC50 (Candida albicans [3])
NCCCC[C@H](NC(=O)[C@H](CO)NC(=O)Cc1ccc(CCCCn2ccnc2)cc1)C(=O)NCCC1CCCCC1	0.31 µM	–	–	–	–
Cc1nc2ccccc2n1CCCCc1ccc(C(C)C(=O)N[C@@H](CO)C(=O)N[C@@H](CCCCN)C(=O)NCCC2CCCCC2)cc1 (stereo not given in full)	0.86 µM	119.5 µM	–	–	–
NCCCC[C@H](NC(=O)[C@H](CO)NC(=O)CCCCCCCCn1ccnc1)C(=O)NCCC1CCCCC1	5.5 µM	–	–	–	–
CCc1nccn1CCCCc1ccc(CC(=O)N[C@@H](CO)C(=O)N[C@@H](CCCCN)C(=O)NCCC2CCCCC2)cc1	0.147 µM	28.2 µM	–	–	–
NCCCC[C@H](NC(=O)[C@H](CO)NC(=O)CCCCCCCCCCCn1ccnc1)C(=O)NCCC1CCCCC1	3 µM	–	–	–	–
NCCCC[C@H](NC(=O)[C@H](CO)NC(=O)CCCCCCCCCn1ccnc1)C(=O)NCCC1CCCCC1	3 µM	–	–	–	–
NCCCC[C@H](NC(=O)[C@H](CO)NC(=O)Cc1ccc(CCCCCn2ccnc2)cc1)C(=O)NCCC1CCCCC1	1.2 µM	–	–	–	–
CC(C(=O)N[C@@H](CO)C(=O)N[C@@H](CCCCN)C(=O)NCCC1CCCCC1)c1ccc(CCCCn2ccnc2Cl)cc1 (stereo not given in full)	2.05 µM	142 µM	–	–	–

Now from value to molecule, other results behind:

IC50 [1]	IC50 [2]	EC50 (Candida albicans [4])	Compound	EC50 (Cryptococcus neoformans)	EC50 (Candida albicans [3])
1.45 µM	809.5 µM	–	Cc1nccn1CCCCc1ccc(CC(=O)N[C@@H](CO)C(=O)N[C@@H](CCCCN)C(=O)N[C@@H](CC2CCCCC2)C(=O)O)cc1	> 100 µM	51 µM
1.88 µM	–	–	NCCCC[C@H](NC(=O)[C@H](CO)NC(=O)Cc1ccc(CCCCn2ccnc2I)cc1)C(=O)NCCC1CCCCC1	–	–
> 1000 µM	> 1000 µM	> 100 µM	Cc1nccn1CCCCc1ccc(CC(=O)N[C@H](CO)C(=O)N[C@H](CCCCN)C(=O)N[C@H](CC2CCCCC2)C(=O)O)cc1	> 100 µM	–
0.38 µM	840 µM	33 µM	Cc1nccn1CCCCc1ccc(C(C)C(=O)N[C@@H](CO)C(=O)N[C@@H](CCCCN)C(=O)N[C@@H](CC2CCCCC2)C(=O)O)cc1 (stereo not given in full)	> 100 µM	–
0.2 µM	> 100 µM	–	CC(C)c1nccn1CCCCc1ccc(CC(=O)N[C@@H](CO)C(=O)N[C@@H](CCCCN)C(=O)NCCC2CCCCC2)cc1	–	–
0.081 µM	22.7 µM	> 100 µM	COC(=O)[C@H](NC(=O)[C@H](CCCCN)NC(=O)[C@H](CO)NC(=O)Cc1ccc(CCCCn2ccnc2C)cc1)C(=O)O	> 100 µM	–
